Source: patent US10167279B2 (NOVARTIS AG, priority 2014, dated 2019)

Assays:
b-Raf (V600E) = b-Raf (V600E) (Homo sapiens (Human), UniProt P15056, V600E); experiment: In vitro Raf activity determination (Alpha Screen, phospho-MEK), b-Raf (V600E); type: biochemical; conditions: ATP 10 μM, 60 min pre-incubation, 3 hours reaction
Excerpt: The activity of a compound according to the present invention can be assessed by well-known in vitro & in vivo methods. Raf inhibition data provided herein was obtained using the following procedures.
Sf9 cells co-expressing both proteins were lysed and subjected to immobilized nickel chromatography and eluted with Imidazole. A second column (StrepII binding column) was used and eluted with desthiobiotin. Protein Tags were removed using Prescission enzyme and the protein was further purified using a flowthrough step to remove tags.
Full length MEK1 with an inactivating K97R ATP binding site mutation is utilized as a RAF substrate. The MEK1 cDNA was subcloned with an N-terminal (his)6 tag into a vector for E. Coli expression. The MEK1 substrate was purified from E. Coli lysate by nickel affinity chromatography followed by anion exchange. The final MEK1 preparation was biotinylated (Pierce EZ-Link Sulfo-NHS-LC-Biotin) and concentrated.
The plate was incubated for 60 minutes at room temperature. […] The additions were carried out under dark conditions to protect the detection beads from light. A lid was placed on top of the plate and incubated for 1 hour at room temperature, after which the luminescence was read on a PerkinElmer Envision instrument.

C-Raf FL = C-Raf FL (Homo sapiens (Human), UniProt P04049, Y340E/Y341E); experiment: In vitro Raf activity determination (Alpha Screen, phospho-MEK), C-Raf FL (full length, Y340E/Y341E); type: biochemical; conditions: ATP 1 μM; 60 min pre-incubation; 1 hour reaction; column head does not say FL or TR
Summary of the method: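 Read-out is AlphaScreen luminescence using rabbit anti-p-MEK with protein A beads after EDTA stop, with IC50 fitted by non-linear regression. Reaction: Sf9-derived C-Raf plus biotinylated E. coli MEK1 K97R substrate, pH 7.5 Tris/MgCl2/DTT buffer, compound preincubated 60 min at room temperature.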

b-Raf (V600E), sequence (P15056 whole entry V600E): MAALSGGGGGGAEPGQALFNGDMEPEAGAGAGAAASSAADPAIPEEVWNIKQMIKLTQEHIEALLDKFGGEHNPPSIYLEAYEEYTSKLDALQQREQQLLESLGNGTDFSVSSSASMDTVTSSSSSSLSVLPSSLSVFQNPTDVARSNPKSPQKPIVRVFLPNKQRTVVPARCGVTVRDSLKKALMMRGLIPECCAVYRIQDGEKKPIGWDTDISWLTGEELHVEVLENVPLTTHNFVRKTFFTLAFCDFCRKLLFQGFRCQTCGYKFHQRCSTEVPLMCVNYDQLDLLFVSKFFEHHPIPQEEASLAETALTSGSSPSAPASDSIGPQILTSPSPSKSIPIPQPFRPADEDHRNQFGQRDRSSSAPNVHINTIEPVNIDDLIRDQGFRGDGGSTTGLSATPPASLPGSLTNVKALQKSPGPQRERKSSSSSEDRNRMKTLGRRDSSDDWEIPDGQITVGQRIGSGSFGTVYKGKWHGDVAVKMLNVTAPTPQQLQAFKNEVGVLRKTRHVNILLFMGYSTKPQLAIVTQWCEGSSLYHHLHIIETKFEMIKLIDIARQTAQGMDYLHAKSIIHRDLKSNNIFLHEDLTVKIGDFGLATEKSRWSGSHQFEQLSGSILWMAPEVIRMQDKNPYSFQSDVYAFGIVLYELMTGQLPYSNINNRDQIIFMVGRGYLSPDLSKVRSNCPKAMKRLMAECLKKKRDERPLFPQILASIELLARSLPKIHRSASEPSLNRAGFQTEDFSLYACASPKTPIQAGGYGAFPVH
C-Raf FL, sequence (P04049 whole entry Y340E/Y341E): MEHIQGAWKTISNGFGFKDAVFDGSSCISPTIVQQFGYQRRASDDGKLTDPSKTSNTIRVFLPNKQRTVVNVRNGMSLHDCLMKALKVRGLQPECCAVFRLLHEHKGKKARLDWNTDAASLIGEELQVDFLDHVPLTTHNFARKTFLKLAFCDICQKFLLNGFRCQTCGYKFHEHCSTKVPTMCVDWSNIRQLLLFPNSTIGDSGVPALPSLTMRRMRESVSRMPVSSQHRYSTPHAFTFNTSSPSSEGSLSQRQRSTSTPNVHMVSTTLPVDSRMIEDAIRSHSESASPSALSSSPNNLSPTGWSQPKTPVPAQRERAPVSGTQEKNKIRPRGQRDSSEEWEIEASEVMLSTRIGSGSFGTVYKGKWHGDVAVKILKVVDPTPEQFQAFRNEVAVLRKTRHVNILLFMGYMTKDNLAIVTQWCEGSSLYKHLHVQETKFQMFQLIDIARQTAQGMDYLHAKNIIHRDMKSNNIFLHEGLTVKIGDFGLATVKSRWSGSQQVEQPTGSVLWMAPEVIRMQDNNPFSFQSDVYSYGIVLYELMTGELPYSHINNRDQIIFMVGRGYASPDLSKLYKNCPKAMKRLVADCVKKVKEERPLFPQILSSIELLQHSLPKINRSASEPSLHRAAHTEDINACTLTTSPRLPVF
C-Raf FL, sequence (P63104 whole entry partner): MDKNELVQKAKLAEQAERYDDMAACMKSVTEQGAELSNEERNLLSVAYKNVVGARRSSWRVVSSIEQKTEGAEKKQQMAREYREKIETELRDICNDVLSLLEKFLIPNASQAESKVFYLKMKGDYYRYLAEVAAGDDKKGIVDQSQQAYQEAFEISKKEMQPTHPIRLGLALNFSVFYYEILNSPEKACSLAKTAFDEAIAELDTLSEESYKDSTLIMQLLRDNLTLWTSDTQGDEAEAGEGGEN

Row | IC50 (b-Raf (V600E)) [nM] | IC50 (C-Raf FL) [nM] | SMILES
1 | 1.45 | 0.258 | CCOc1ncc(-c2cc(NC(=O)c3cnnc(C(F)(F)F)c3)cnc2C)cc1C1(C)COC1 [Example 66, N-(6′-ethoxy-2-methyl-5′-(3-methyloxetan-3-yl)-[3,3′-bipyridin]-5-yl)-6-(trifluoromethyl)pyridazine-4-carboxamide]
2 | 0.304 | 0.078 | CCOc1ncc(-c2cc(NC(=O)c3cnnc(C(F)(F)F)c3)ccc2C)cc1C1(C)COC1 [Example 67, N-(3-(6-ethoxy-5-(3-methyloxetan-3-yl)pyridin-3-yl)-4-methylphenyl)-6-(trifluoromethyl)pyridazine-4-carboxamide]
3 | 3.71 | 0.618 | Cc1ncc(NC(=O)c2ccnc(C(C)(F)F)c2)cc1-c1cccc(C2(C)COC2)c1 [Example 68, 2-(1,1-difluoroethyl)-N-(6-methyl-5-(3-(3-methyloxetan-3-yl)phenyl)pyridin-3-yl)isonicotinamide]
4 | 5.1 | 0.895 | Cc1ncc(NC(=O)c2ccnc(C(C)(C)F)c2)cc1-c1cccc(C2(C)COC2)c1 [Example 69, 2-(2-fluoropropan-2-yl)-N-(6-methyl-5-(3-(3-methyloxetan-3-yl)phenyl)pyridin-3-yl)isonicotinamide]
5 | 12.9 | 1.59 | Cc1ncc(NC(=O)c2ccnc(C(C)(F)F)c2)cc1-c1cccc(C2COC2)c1 [Example 70, 2-(1,1-difluoroethyl)-N-(6-methyl-5-(3-(oxetan-3-yl)phenyl)pyridin-3-yl)isonicotinamide]
6 | 2.84 | 0.351 | COc1ncc(-c2cc(NC(=O)c3ccnc(C(F)(F)F)c3)ccc2C)cc1C1(O)COC1 [Example 71, N-(3-(5-(3-hydroxyoxetan-3-yl)-6-methoxypyridin-3-yl)-4-methylphenyl)-2-(trifluoromethyl)isonicotin-amide]
7 | 4.2 | 1.04 | COc1ncc(-c2cc(NC(=O)c3ccnc(C(C)(C)C#N)c3)ccc2C)cc1C1(O)COC1 [Example 72, 2-(2-cyanopropan-2-yl)-N-(3-(5-(3-hydroxyoxetan-3-yl)-6-methoxypyridin-3-yl)-4-methylphenyl)isonicotin-amide]
8 | 23.4 | 3.09 | COc1ncc(-c2cc(NC(=O)c3ccnc(C(C)(C)O)c3)ccc2C)cc1C1(O)COC1 [Example 73, N-(3-(5-(3-hydroxyoxetan-3-yl)-6-methoxypyridin-3-yl)-4-methylphenyl)-2-(2-hydroxypropan-2-yl)isonicotinamide]
9 | 2.07 | 0.36 | COc1ncc(-c2cc(NC(=O)c3ccnc(C(C)(F)F)c3)ccc2C)cc1C1(O)COC1 [Example 74, 2-(1,1-difluoroethyl)-N-(3-(5-(3-hydroxyoxetan-3-yl)-6-methoxypyridin-3-yl)-4-methylphenyl)isonicotin-amide]
10 | 76.6 | 6.36 | COc1ncc(-c2cc(NC(=O)c3ccnc(C(F)(F)F)c3)cnc2C)cc1C1(O)COC1 [Example 75, N-(5′-(3-hydroxyoxetan-3-yl)-6′-methoxy-2-methyl-[3,3′-bipyridin]-5-yl)-2-(trifluoromethyl)isonicotin-amide]
11 | 22.8 | 3.93 | COc1ncc(-c2cc(NC(=O)c3ccnc(C(C)(C)F)c3)cnc2C)cc1C1(O)COC1 [Example 76, 2-(2-fluoropropan-2-yl)-N-(5′-(3-hydroxyoxetan-3-yl)-6′-methoxy-2-methyl-[3,3′-bipyridin]-5-yl)isonicotinamide]
12 | 24 | 3.57 | COc1ncc(-c2cc(NC(=O)c3ccnc(C(C)(F)F)c3)cnc2C)cc1C1(O)COC1 [Example 77, 2-(1,1-difluoroethyl)-N-(5′-(3-hydroxyoxetan-3-yl)-6′-methoxy-2-methyl-[3,3′-bipyridin]-5-yl)isonicotinamide]
13 | 23.5 | 3.23 | COc1ncc(-c2cc(NC(=O)c3cc(C(F)(F)F)ccn3)cnc2C)cc1C1(O)COC1 [Example 78, N-(5′-(3-hydroxyoxetan-3-yl)-6′-methoxy-2-methyl-[3,3′-bipyridin]-5-yl)-4-(trifluoromethyl)picolin-amide]
